Assay results published in the NIST ThermoML archive (doi:10.1007/s10765-007-0223-x).

Assay: xn = mol fraction of the nth substance listed
Details: 101 kPa, Liquid; for speed of sound: Single path-length method

COC(C)(C)C [2-methoxy-2-methylpropane] + CC(C)(C)O
Details | mass density [kg/m3] | speed of sound [m/s]
301.65 K, x1 = 0.049 | 775.452 | 1105.4
301.65 K, x1 = 0.1 | 772.914 | 1100.7
301.65 K, x1 = 0.215 | 767.025 | 1089.3
301.65 K, x1 = 0.314 | 761.986 | 1079.7
301.65 K, x1 = 0.4 | 757.94 | 1072
301.65 K, x1 = 0.498 | 753.459 | 1063.6
301.65 K, x1 = 0.597 | 749.177 | 1055.5
301.65 K, x1 = 0.707 | 744.495 | 1047.6
301.65 K, x1 = 0.799 | 740.646 | 1040.8
301.65 K, x1 = 0.9 | 736.522 | 1033.1
301.65 K, x1 = 0.951 | 734.553 | 1028.8
301.65 K, x1 = 1 | 732.643 | 1024.3
303.15 K, x1 = 0.049 | 772.916 | 1094.7
303.15 K, x1 = 0.1 | 770.395 | 1090.2
303.15 K, x1 = 0.215 | 764.529 | 1079.1
303.15 K, x1 = 0.314 | 759.479 | 1069.7
303.15 K, x1 = 0.4 | 755.424 | 1061.9
303.15 K, x1 = 0.498 | 750.928 | 1053.1
303.15 K, x1 = 0.597 | 746.615 | 1045
303.15 K, x1 = 0.707 | 741.905 | 1036.7
303.15 K, x1 = 0.799 | 738.033 | 1029.9
303.15 K, x1 = 0.9 | 733.889 | 1021.9
303.15 K, x1 = 0.951 | 731.913 | 1017.6
303.15 K, x1 = 1 | 729.99 | 1012.8
305.65 K, x1 = 0.049 | 770.344 | 1084
305.65 K, x1 = 0.1 | 767.841 | 1079.7
305.65 K, x1 = 0.215 | 762.002 | 1068.7
305.65 K, x1 = 0.314 | 756.946 | 1059.4
305.65 K, x1 = 0.4 | 752.889 | 1051.7
305.65 K, x1 = 0.498 | 748.373 | 1042.6
305.65 K, x1 = 0.597 | 744.023 | 1034.3
305.65 K, x1 = 0.707 | 739.304 | 1025.9
305.65 K, x1 = 0.799 | 735.393 | 1018.7
305.65 K, x1 = 0.9 | 731.231 | 1010.6
305.65 K, x1 = 0.951 | 729.253 | 1006.3
305.65 K, x1 = 1 | 727.325 | 1001.4
308.15 K, x1 = 0.049 | 767.747 | 1073.2
308.15 K, x1 = 0.1 | 765.265 | 1069.1
308.15 K, x1 = 0.215 | 759.448 | 1058.2
308.15 K, x1 = 0.314 | 754.398 | 1049.1
308.15 K, x1 = 0.4 | 750.325 | 1041.2
308.15 K, x1 = 0.498 | 745.794 | 1032
308.15 K, x1 = 0.597 | 741.414 | 1023.5
308.15 K, x1 = 0.707 | 736.686 | 1015.2
308.15 K, x1 = 0.799 | 732.737 | 1007.6
308.15 K, x1 = 0.9 | 728.559 | 999.39
308.15 K, x1 = 0.951 | 726.577 | 994.94
308.15 K, x1 = 1 | 724.645 | 989.9
310.65 K, x1 = 0.049 | 765.13 | 1062.6
310.65 K, x1 = 0.1 | 762.685 | 1058.9
310.65 K, x1 = 0.215 | 756.88 | 1047.9
310.65 K, x1 = 0.314 | 751.817 | 1038.6
310.65 K, x1 = 0.4 | 747.731 | 1030.6
310.65 K, x1 = 0.498 | 743.186 | 1021.4
310.65 K, x1 = 0.597 | 738.784 | 1012.8
310.65 K, x1 = 0.707 | 734.036 | 1004.3
310.65 K, x1 = 0.799 | 730.062 | 996.52
310.65 K, x1 = 0.9 | 725.873 | 988.12
310.65 K, x1 = 0.951 | 723.884 | 983.57
310.65 K, x1 = 1 | 721.953 | 978.47
313.15 K, x1 = 0.049 | 762.492 | 1052
313.15 K, x1 = 0.1 | 760.064 | 1048.4
313.15 K, x1 = 0.215 | 754.27 | 1037.4
313.15 K, x1 = 0.314 | 749.212 | 1028.2
313.15 K, x1 = 0.4 | 745.126 | 1020.2
313.15 K, x1 = 0.498 | 740.567 | 1010.9
313.15 K, x1 = 0.597 | 736.13 | 1002
313.15 K, x1 = 0.707 | 731.36 | 993.34
313.15 K, x1 = 0.799 | 727.372 | 985.44
313.15 K, x1 = 0.9 | 723.168 | 976.81
313.15 K, x1 = 0.951 | 721.205 | 972.48
313.15 K, x1 = 1 | 719.245 | 967.03
315.65 K, x1 = 0.049 | 759.831 | 1041.5
315.65 K, x1 = 0.1 | 757.407 | 1037.8
315.65 K, x1 = 0.215 | 751.633 | 1026.8
315.65 K, x1 = 0.314 | 746.577 | 1017.7
315.65 K, x1 = 0.4 | 742.483 | 1009.7
315.65 K, x1 = 0.498 | 737.91 | 1000.2
315.65 K, x1 = 0.597 | 733.459 | 991.47
315.65 K, x1 = 0.707 | 728.662 | 982.37
315.65 K, x1 = 0.799 | 724.66 | 974.33
315.65 K, x1 = 0.9 | 720.449 | 965.56
315.65 K, x1 = 0.951 | 718.495 | 961.27
315.65 K, x1 = 1 | 716.525 | 955.73
318.15 K, x1 = 0.049 | 757.138 | 1031
318.15 K, x1 = 0.1 | 754.729 | 1027.3
318.15 K, x1 = 0.215 | 748.972 | 1016.3
318.15 K, x1 = 0.314 | 743.917 | 1007.1
318.15 K, x1 = 0.4 | 739.814 | 999.06
318.15 K, x1 = 0.498 | 735.227 | 989.54
318.15 K, x1 = 0.597 | 730.762 | 980.67
318.15 K, x1 = 0.707 | 725.943 | 971.38
318.15 K, x1 = 0.799 | 721.933 | 963.24
318.15 K, x1 = 0.9 | 717.738 | 954.55
318.15 K, x1 = 0.951 | 715.752 | 949.91
318.15 K, x1 = 1 | 713.786 | 944.34
320.65 K, x1 = 0.049 | 754.421 | 1020.5
320.65 K, x1 = 0.1 | 752.024 | 1016.8
320.65 K, x1 = 0.215 | 746.283 | 1005.9
320.65 K, x1 = 0.314 | 741.23 | 996.62
320.65 K, x1 = 0.4 | 737.119 | 988.47
320.65 K, x1 = 0.498 | 732.517 | 978.82
320.65 K, x1 = 0.597 | 728.042 | 969.8
320.65 K, x1 = 0.707 | 723.201 | 960.4
320.65 K, x1 = 0.799 | 719.199 | 952.31
320.65 K, x1 = 0.9 | 714.978 | 943.3
320.65 K, x1 = 0.951 | 712.991 | 938.58
320.65 K, x1 = 1 | 711.028 | 933.01
323.15 K, x1 = 0.049 | 751.68 | 1010
323.15 K, x1 = 0.1 | 749.295 | 1006.3
323.15 K, x1 = 0.215 | 743.567 | 995.37
323.15 K, x1 = 0.314 | 738.52 | 986.19
323.15 K, x1 = 0.4 | 734.4 | 977.86
323.15 K, x1 = 0.498 | 729.786 | 968.08
323.15 K, x1 = 0.597 | 725.316 | 958.97
323.15 K, x1 = 0.707 | 720.436 | 949.42
323.15 K, x1 = 0.799 | 716.426 | 941.22
323.15 K, x1 = 0.9 | 712.195 | 931.99
323.15 K, x1 = 0.951 | 710.215 | 927.25
323.15 K, x1 = 1 | 708.28 | 921.93
